From US9943558B2, “Compositions and methods for treating multi-drug resistant malaria” (Febris Bio-Tech Limited, priority 2011, dated 2018)
Values after ≈ are worked out from the molar mass of the structure shown. Like-named read-outs stand apart in the source and are kept apart here. One block for each molecule: values may come before it.

Experiments:
[1] = cited from earlier work
P. falciparum clone 3D7 = test: Malaria SYBR Green I-based fluorescence method, clone 3D7; format: cell-based; conditions: Plasmodium falciparum, 3D7, 72 h, read-out: In vitro susceptibility (IC50) 3D7
Procedure: (§1) 1803-1806, Vol. 48, No. 5, with slight modifications. Drug solutions were serially diluted with culture medium and distributed to asynchronous parasite cultures in 96-well plates in quadruplicate to achieve 0.2% parasitaemia with a 2% haematocrit in a total volume of 100 μL. The plates were then incubated for 72 h at 37° C. Following incubation, 100 μL of lysis buffer with 0.2 μL/mL SYBR Green 1 was added to each well. The plates were incubated at 37° C. for 1 h in the dark and then placed in a 96-well fluorescence plate reader (Multilabel HTS Counter; PerkinElmer, Waltham, Mass., USA) with excitation and emission wavelengths at 497 nm and 520 nm, respectively, for measurement of fluorescence. The 50% inhibitory concentration (IC50) was determined by non-linear regression analysis of logistic dose—response curves using GraphPad Prism software (GraphPad Software Inc., La Jolla, Calif.). This example serves as a comparative method.
(§2) Next, the assay portion of procedure of Example 1C was performed using Coartem as a positive control.

[2] = test system: P. falciparum drug-sensitive (DS) clone 3D7; test: In vitro growth inhibition IC50, Giemsa-stained smears (Example 1D), clone 3D7; format: cell-based; conditions: Plasmodium falciparum
Procedure: (§3) The Luo Han Guo general extract (Sample 8) was prepared by extraction of dried Luo Han fruit with hot water as in Example 1A, and then fractionated with EtOAc and n-butanol respectively as in Example 1A to yield 3 fractions corresponding to Samples 5a-7a. Samples 6a-7a also correspond to “compound B” and “compound A” respectively.
(§4) The P. falciparum was cell synchronized by adding 5% of D-sorbitol, and synchronized cells were then spread on culture plates after achieving ring form phase, with an initial infection rate of 1% and PCV at 5%.
(§5) 10 μl active ingredient solution plus 90 μl P. falciparum culture medium were spread on each well.
(§6) Drug-sensitive (DS) clone 3D7 and multi-drug resistant (MDR) clone Dd2 of Plasmodium falciparum, obtained from the Malaria Research and Reference Reagent Resource Centre (MR4), Manassas, Va., USA, were maintained continuously in blood group O+ human erythrocytes and 10% human serum in a gas mixture consisting of 7% CO2, 5% O2 and 88% N2.
(§7) In vitro inhibitory concentration assays. P. falciparum clones 3D7 and Dd2 were maintained continuously in blood group O+ human erythrocytes and 10% human serum in a gas mixture consisting of 7% CO2, 5% O2, and 88% N2, synchronized by serial treatments with 5% D-sorbitol. […]

[3] = test system: Plasmodium falciparum multidrug resistant strain (MDR) 7G8; test: In vitro growth inhibition of P. falciparum 7G8, infection rate by Giemsa-stained smear (Example 1B); format: cell-based; conditions: 7G8, read-out: Antimalarial activity, IC50
Text: The Plasmodium falciparum multidrug resistant strain (MDR) 7G8, (obtained from the Malaria Research and Reference Reagent Resource Centre (MR4), Manassas, Va., USA), was in vitro cultured in RMPI 1640 cell culture medium (supplemented with 10% Human Serum) with PCV (packed cell volume) at 5%. The P. falciparum was cell synchronized by adding 5% of D-sorbitol, and synchronized cells were then spread on culture plates after achieving ring form phase, with an initial infection rate of 1% and PCV at 5%.
as §5

[4] = test system: P. falciparum multi-drug resistant (MDR) clone Dd2; test: In vitro growth inhibition IC50, Giemsa-stained smears (Example 1D), clone Dd2; format: cell-based; conditions: Plasmodium falciparum
Procedure: as §3, §4, §5, §6, §7

P. falciparum clone Dd2 = test: Malaria SYBR Green I-based fluorescence method, clone Dd2; format: cell-based; conditions: Plasmodium falciparum, DD2, 72 h, read-out: In vitro susceptibility (IC50) Dd2
Procedure: as §1, §2

[5] = cited from earlier work; for half-life (t1/2): in humans
[6] = test system: P. falciparum multi-drug resistant (MDR) clone Dd2; test: In vitro inhibitory concentration assay, light microscopy of Giemsa-stained smears (Example 1C), clone Dd2; format: cell-based; conditions: Plasmodium falciparum, 10^−4 g/L, read-out: Percent of Inhibition (%, Mean ± SD) Dd2
Procedure: (§8) Parasite cultivation. Drug-sensitive clone 3D7 and multi-drug resistant (MDR) clone Dd2 of Plasmodium falciparum, obtained from the Malaria Research and Reference Reagent Resource Centre (MR4), Manassas, Va., USA, were maintained continuously in blood group O+ human erythrocytes and 10% human serum in a gas mixture consisting of 7% CO2, 5% O2 and 88% N2.
(§9) The stock solutions of Example 1A, and CQ employed as the positive control (prepared as a 10 mM stock solution in PBS), were stored at −20° C. Each working solution was freshly prepared in cell culture medium.
(§10) In vitro inhibitory concentration assays. P. falciparum clones 3D7 and Dd2 were maintained continuously in blood group O+ human erythrocytes and 10% human serum in a gas mixture consisting of 7% CO2, 5% O2, and 88% N2, synchronized by serial treatments with 5% D-sorbitol. In vitro growth inhibition of ring-stage-parasitized erythrocytes starting at 1% parasitemia and 2.5% hematocrit was determined by light microscopy of Giemsa-stained smears.

P. falciparum infection = test: Expected oral treatment of patients, standard blood film monitoring; format: in vivo, Plasmodium falciparum; conditions: patient, aqueous composition, total daily dosage up to about 500 mg of each active
[7] = test system: P. falciparum drug-sensitive clone 3D7; test: In vitro inhibitory concentration assay, light microscopy of Giemsa-stained smears (Example 1C), clone 3D7; format: cell-based; conditions: Plasmodium falciparum, 10^−4 g/L, read-out: Percent of Inhibition (%, Mean ± SD) 3D7
Procedure: as §8, §9, §10

P. falciparum DD2 = test: Checkerboard assay (FIC index); format: cell-based, Plasmodium falciparum; conditions: for MIC: Plasmodium falciparum, DD2, each component used alone
Procedure: Checkerboard assay. The anti-malaria activity of Luohan fruit extracts and Stevia leaf extracts in vitro were determined and predicted using the malarial strain P. falciparum DD2. Samples are mixed into 1:2 series dilutions and the FIC index (FICI) is calculated. (Rand, K. H., Houck, H. J., Brown, P. et al. “Reproducibility of the microdilution checkerboard method for antibiotic synergy,” Antimicrobial Agents & Chemotherapy (1993) 37:613-5; Eliopoulos, G. M., Moellering R. C. in Antibiotics in Laboratory Medicine, ed. Lorian V (Williams & Wilkins, Baltimore, Md., 1991), pp 432-492; Ghannoum, M. A., Fu, Y., Ibrahim, A. S., Mortara, L. A., Shafiq, M. C., Edwards, J. E., Jr., Criddle, R. S. Antimicrob. Agents Chemother. (1995) 39:2459-2465; Barchiesi, F., DiFrancesco, L. F., Scalise, G. “In Vitro Activities of Terbinafine in Combination With Fluconazole and Itraconazole Against Isolates of Candida albicans With Reduced Susceptibility to Azoles,” Antimicrob. Agents Chemother. (1997) 41:1812-1814. Each of the foregoing references are incorporated herein by reference in their entirety.)
To determine whether the readout of the combination therapy is additive, synergistic, or indifferent, the FIC index (FICI) was calculated by the use of the checkerboard assay. The FICI represents the sum of the FICs of each drug tested, where the FIC (fractional inhibitory concentration) is determined for each drug by dividing the MIC of each drug when used in combination by the MIC of each drug when used alone. FICI=(MICdrug A in combination/MICdrug A alone)+(MICdrug B in combination/MICdrug B alone). The preassumptions are that (i) testing uses concentrations separated by a factor of 2, and (ii) one-dilution-step MIC changes are within the range of experimental error. Other sophisticated methods have also been used; for example, a contour surface-plot methodology was used in characterizing the nature of three antifungal agents in combinations using various concentrations of each agent.

[8] = in vivo; cited from earlier work
[9] = Example 2E (control): artemesinin with Reb A

SMILES: C[C@H](CC[C@@H](OC1OC(COC2OC(CO)C(O)C(O)C2O)C(O)C(O)C1OC1OC(CO)C(O)C(O)C1O)C(C)(C)O)[C@H]1CC[C@@]2(C)[C@@H]3CC=C4[C@@H](CC[C@H](OC5OC(COC6OC(CO)C(O)C(O)C6O)C(O)C(O)C5O)C4(C)C)[C@]3(C)[C@H](O)C[C@]12C (stereo partly drawn) [mogroside V, (3β,9β,10α,11α,24R)-3-[(6-O-β-D-glucopyranosyl-β-D-glucopyranosyl)oxy]-11,25-dihydroxy-9-methyl-19-norlanost-5-en-24-yl-O-β-D-glucopyranosyl-(1-2)-O-[β-D-glucopyranosyl-(1-6)]-β-D-glucopyranoside]
- solubility in water [1]: fully water soluble

SMILES: CCN(CC)CCCC(C)Nc1ccnc2cc(Cl)ccc12 (centres unmarked) [CQ, chloroquine]
- IC50 (P. falciparum clone 3D7): 1.63 ± 0.1 nM
- IC50 ([2]; 3D7, read-out: IC50, av. 3D7 (DS)): 1.37 ± 0.12 nM
- IC50 [3]: 0.264 ± 0.012 µg/mL (≈ 0.825 µM)
- IC50 ([4]; DD2, read-out: IC50, av. Dd2 (MDR)): 22.6 ± 0.82 nM
- IC50 (P. falciparum clone Dd2): 22.1 ± 1.96 nM

- IC50 ([2]; clone 3D7 (DS), Giemsa smear, read-out: IC50, av. 3D7 (DS)): 220 ± 10.2 nM
- IC50 ([4]; clone Dd2 (MDR), Giemsa smear, read-out: IC50, av. Dd2 (MDR)): 376 ± 12.4 nM
- MIC in combination (P. falciparum DD2; Example 2D: compound A with Reb A): 94 nM
- MIC in combination (P. falciparum DD2; [9]): 376 nM
- MIC (P. falciparum DD2): 376 nM
SMILES: C=C1C[C@@]23CC[C@H]4[C@@](C)(CCC[C@@]4(C)C(=O)OC4OC(CO)C(O)C(O)C4O)[C@@H]2CC[C@]1(OC1OC(CO)C(O)C(OC2OC(CO)C(O)C(O)C2O)C1OC1OC(CO)C(O)C(O)C1O)C3 (stereo partly drawn) [Sample No. 1, (14α)-13-[(2-O-β-D-glucopyranosyl-3-O-β-D-glucopyranosyl-β-D-glucopyranosyl)oxy]kaur-16-en-19-oic acid β-D-glucopyranosyl ester]
- adverse hemodynamic effects or blood glucose lowering effects ([5]; at the dosages used herein): does not exhibit adverse hemodynamic effects or blood glucose lowering effects
- half-life (t1/2) [5]: approximately 14 hours
- inhibition at 0.1 µg/mL [6]: 56.1 ± 1.36%
- expected time until P. falciparum infection is suppressed or inhibited (P. falciparum infection): 3 to 7 days
- inhibition at 0.1 µg/mL [7]: 41.3%
- solubility in water [1]: fully water soluble

SMILES: C=C1C[C@@]23CC[C@H]4[C@@](C)(CCC[C@@]4(C)C(=O)O[C@@H]4O[C@H](CO)[C@@H](O)[C@H](O)[C@H]4O)[C@@H]2CC[C@]1(O[C@@H]1O[C@H](CO)[C@@H](O)[C@H](O)[C@H]1O[C@@H]1O[C@H](CO)[C@@H](O)[C@H](O)[C@H]1O)C3 [stevioside]
- half-life (t1/2) [5]: approximately 14 hours

- MIC in combination (P. falciparum DD2; [9]): 0.0081 nM
- MIC (P. falciparum DD2): 0.13 nM
SMILES: C[C@@H]1CC[C@H]2[C@@H](C)C(=O)O[C@@H]3O[C@@]4(C)CC[C@@H]1[C@]32OO4 [Artemisinin, reference compound]
- solubility in water [1]: poorly soluble in water

SMILES: CCCCN(CCCC)CC(O)c1cc(Cl)cc2c1-c1ccc(Cl)cc1/C2=C/c1ccc(Cl)cc1 (racemic) [lumefantrine, (+/−)-2-dibutylamino-1-[2,7-dichloro-9-(4-chlorobenzylidene)-9,11-fluoren-4-yl]ethanol]
- elimination [8]: eliminated more slowly

SMILES: CO[C@H]1O[C@@H]2O[C@@]3(C)CC[C@H]4[C@H](C)CC[C@@H]([C@H]1C)[C@@]24OO3 [Artemether, artemether]
- elimination [8]: rapidly eliminated
